For three substances, Ki and response rate results are on record in paper PMC5474226 (Cancer research, 2017).

One experiment deals with granzyme B. The note with it: tetrapeptide with C-terminus aspartate modified to aldehyde; ref [21],[22]; cited from earlier work.
Experiment [1] concerns the target granzyme B (activated from pro-granzyme B) (UniProt P04187). Briefly: enzyme inhibition assay.
In experiment [2] the test system is advanced non-small cell lung cancer. The note with it: ref [8], cited from earlier work.

Where two headings read alike, the source gives them in different places.

Sequence of UniProt P04187 (P04187 21-247): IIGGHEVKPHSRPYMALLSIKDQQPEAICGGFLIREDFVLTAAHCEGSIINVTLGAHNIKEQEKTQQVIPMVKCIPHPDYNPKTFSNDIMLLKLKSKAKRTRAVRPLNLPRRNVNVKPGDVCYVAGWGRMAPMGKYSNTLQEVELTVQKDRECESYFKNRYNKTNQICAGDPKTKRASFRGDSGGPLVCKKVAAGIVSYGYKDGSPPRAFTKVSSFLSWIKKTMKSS

By Ki is commonly meant a measure of affinity in units of concentration, obtained from inhibition or displacement. Ile-Glu-Phe-Asp: the inhibition constant (Ki) on granzyme B was 80 nM.

The substance “NOTA–β-Ala–Gly–Gly–Ile–Glu–Phe–Asp–CHO (NOTA-GZP), gallium-labelled (peptide)” came in with an inhibition constant Ki in experiment [1] of 47 nM.

As for pembrolizumab, the results for the response rate in experiment [2] (patients with >1% positive PD-L1 staining) and in experiment [2] (tumors with greater than 50% positive staining for PD-L1) were 18% and 30%, respectively.
